Assays:
[1] = test system: acetic acid (AA) irritated bladders of rats; experiment: Acute bladder irritation by acetic acid in rats (continuous infusion cystometrogram); type: in vivo, rat (female Sprague Dawley); settings: anesthetized rats; 3, 10 and 30 mg/kg, intravenous cumulative doses; intravesical infusion of 0.15% acetic acid; FIG. 1
Protocol: (§1) The effect of a representative compound of formula I, (S)-(+)-2-[4-(2-fluorobenzyloxy)-benzylamino]-propanamide (NW-1029), on voiding function was tested in the following rat models of “Acute bladder irritation by acetic acid” and “Intermediate bladder irritation by cyclophosphamide (CYP)”.
(§2) Continuous infusion cystometrograms (0.04 ml/min) were used to measure intercontraction intervals (ICIs) which provide an estimate of bladder capacity. Cumulative dose response curves were obtained in each animal by administering intravenously increasing doses of the drug.
Experiments were performed using adult anesthetized female Sprague Dawley rats (170-200 g).
A catheter (PE-50) was inserted via a midline abdominal incision into the bladder through the bladder dome, and then intravesical pressure was measured to monitor bladder activity during continuous infusion of 0.15% of acetic acid. Intercontraction intervals (ICIs), maximal contraction pressure, and pressure thresholds inducing reflex bladder contraction were measured before and after intravesical infusion of acetic acid in NW-1029 treated rats.

[2] = test system: cyclophosphamide (CYP) irritated bladders of rats; experiment: Intermediate bladder irritation by cyclophosphamide (CYP) in rats (continuous infusion cystometrogram); type: in vivo, rat (female Sprague Dawley); settings: 0.1 to 10 mg/kg/iv, CYP 150 mg/kg/ip one day before
Protocol: as §1, §2
Experiments were performed using both adult awake and anesthetized female Sprague Dawley rats (170-200 g).
Chemical cystitis was induced by CYP, which is metabolized to acrolein, an irritant eliminated in the urine. CYP (150 mg/kg/ip) was administered one day before the experiment.
NW-1029 was administered in a dose range from 0.1 to 10 mg/kg/iv.

In the case of `C[C@H](NCc1ccc(OCc2ccccc2F)cc1)C(N)=O` [NW-1029, (S)-(+)-2-[4-(2-fluorobenzyloxy)-benzylamino]-propanamide], the “intercontraction interval (ICI), reversal of AA-induced reduction” value [1] is reported as “significant reversal of the AA-induced reduction in the ICI”, the “intercontraction interval (ICI)” value ([2]; anesthetized rats, FIG. 3) is reported as “significantly increases the ICI” and the “intercontraction interval (ICI)” value ([2]; awake rats, FIG. 2) is reported as “significantly increases the ICI”.

From patent publication US7718815B2, “Alpha-aminoamide derivatives useful in the treatment of lower urinary tract disorders” (Newron Pharmaceuticals S.p.A., priority 2004, dated 2010)
